“Also recorded” adds a separate entry of the source. Where no end group is shown, it is not given here.
Experiments:
PC3 = assay: Cell viability after peptide treatment, PC3; assay type: cell-based, human; conditions: 50 μM stated for tat-GG-SATLDALLAALRRI; 18 hours
Procedure: (§1) Briefly, NTera 2 human neuronal cells, R2 neural cells, CSM14.1 neural cells, LNCaP cells, SH-SY5Y human neuroblastoma cells and PC12 NRA5 cells were grown in DMEM/F12 (50/50) supplemented with 5% fetal bovine serum and seeded onto 96-well plates. […] The purified peptides were dissolved in tissue culture grade water and diluted to 50 μM and 100 μM in serum free medium and directly added to the cells in 96-well plates. The cells were incubated at 37° C. for 18 hours and 20 μM propidium iodide was added. Cell viability was determined using a fluorimeter as previously described (Kane et al. J. Neurosci. Res. 40:269-275 (1995)).

[1] = test system: SH-SY5Y human neuroblastoma cells; assay: Cell death by tat-linked peptides and mutated variants in SH-SY5Y cells (FIG. 2); assay type: cell-based; conditions: relative to unmutated tat-GG-SATLDALLAALRRI
Procedure: To further analyze the effect of particular point mutations on apoptosis, additional studies employing dependence peptides and mutated variants linked to tat were performed in SH-SY5Y cells. The results shown in FIG. 2 are of studies in which quadruplicate samples were averaged, and the studies were repeated 2 to 10 times for each peptide. Each column represents the percentage cell death and the bars indicate the standard error. The amount of peptide added to the cells is indicated above each column.

[2] = test system: NTera 2 human neuronal cells; assay: Cell viability after peptide treatment, NTera 2; assay type: cell-based; conditions: 50 μM stated for tat-GG-SATLDALLAALRRI; 18 hours
Procedure: as §1

COS-7 = assay: Cell viability after peptide treatment, COS-7; assay type: cell-based; conditions: 50 μM stated for tat-GG-SATLDALLAALRRI; 18 hours
Procedure: as §1

LNCaP cells = assay: Cell viability after peptide treatment, LNCaP; assay type: cell-based; conditions: 50 μM stated for tat-GG-SATLDALLAALRRI; 18 hours
Procedure: as §1

293T cells = assay: Apoptosis in 293T cells expressing FKBP/p75^NTR chimeras with or without FK1012; assay type: cell-based; conditions: 2 μM FK1012, 35 μM tamoxifen
Source text: The FKBP12-tagging vector MF1E/MF3E, which included an amino-terminal myristylation site for membrane insertion (Spencer et al. Science 262:1019-1024 (1993)), contains one and three repeats of the FK-binding protein (FKBP) sequence. The FKBP12 vector served as a PCR template and was amplified using primers flanked by Nhe I (5' primer) or Nde I (3' primer) sites to produce DNA fragments consisting of one or three FK-binding domains (FKBP). The resulting PCR products contained either one or three FKBP sequence repeats and were subcloned into pcDNA3.1. A DNA fragment encoding an intracytoplasmic form of p75^NTR was removed from the pUC18-p75 plasmid by digestion with Nde I and Bam HI, and the DNA fragment was ligated to the carboxy-terminus of the FKBP sequences within the pcDNA3.1-FKBP construct. The resulting two expression vectors encoded FKBP/p75^NTR chimeras comprising one or three FKBP repeats at the amino-terminus fused to an intracytoplasmic form of p75^NTR at the carboxy-terminus.
The stimulation of cellular apoptosis by Fas and TNFR I is induced by ligand binding which triggers multimerization of Fas and TNFR I. The assembly of such a death-inducing signaling complex contributes to cellular apoptosis by activating caspase-8. The effect that dimerization or multimerization has on the ability of p75^NTR to stimulate apoptosis was analyzed. […]

PC12 NRA5 cells = conditions: 100 μM peptide; 18 hours
Procedure: Briefly, NTera 2 human neuronal cells, R2 neural cells, CSM14.1 neural cells, LNCaP cells, SH-SY5Y human neuroblastoma cells and PC12 NRA5 cells were grown in DMEM/F12 (50/50) supplemented with 5% fetal bovine serum and seeded onto 96-well plates. The peptides were synthesized and HPLC purified (Coast Scientific, San Diego, Calif.). The purified peptides were dissolved in tissue culture grade water and diluted to 50 μM and 100 μM in serum free medium and directly added to the cells in 96-well plates. The cells were incubated at 37° C. for 18 hours and 20 μM propidium iodide was added. Cell viability was determined using a fluorimeter as previously described (Kane et al. J. Neurosci. Res. 40:269-275 (1995)).

isolated mitochondria = assay: Mitochondrial swelling followed spectrophotometrically at 520 nm (FIG. 3A); assay type: biochemical, rats; conditions: 0.5 mM, positive control
Procedure: Consistent with these observations, molecules such as Bcl-2 which inhibit apoptosis inhibit mitochondrial swelling. Briefly, mitochondria were prepared as previously described (Ellerby et al. J. Neurosci. 17:6165-6178 (1997)) except for the following modifications. The rats were sacrificed by CO2 inhalation without fasting and the mitochondria were isolated in MIB buffer (210 mM mannitol, 70 mM sucrose, 0.05% BSA, 1 mM EGTA, 5 mM Hepes-NaOH, pH 7.4). The mitochondrial pellet samples resuspended in MCB buffer (300 mM mannitol, 10 mM KH2 PO4, 0.1% BSA, pH 7.2) and applied to a discontinuous sucrose gradient (1.6 M sucrose, 10 mM KH2 PO4, pH 7.5; 1.2 M sucrose, 10 mM KH2 PO4, pH 7.5) were centrifuged at 48,500 g for 1 hour. […] The mitochondrial pellets were collected, resuspended in MSB, and stored on ice. After the addition of 50 μM of the peptide, mitochondrial swelling was followed spectrophotometrically at 520 nm (Petronilli et al. J. Biol. Chem. 269:16638-16642 (1994)) in CFS (220 mM mannitol, 68 mM sucrose, 2 mM NaCl, 5 mM KH2 PO4, 2 mM MgCl2, 5 mM succinate, 10 mM Hepes-NaOH, 2 mM ATP, 50 μg/ml creatine kinase, 10 mM phosphocreatine, 0.75 μg/ml rotenone, pH 7.4).

[3] = test system: NTera 2, R2, CSM14.1, LNCaP, SH-SY5Y and PC12 NRA5 cells; assay: Induction of cell death by peptides added to cells (propidium iodide, Table 1); assay type: cell-based; conditions: peptide 50 μM and 100 μM in serum free medium, 18 hours
Procedure: A region of a dependence polypeptide that mediates apoptosis in cells was analyzed for its ability to stimulate apoptosis in cells. […] The effect of replacing leucine with lysine at position 7 (purple, […]; SEQ ID NO:41; tat-purple, tat-GG-[…]; SEQ ID NO:42), removing the carboxy-terminal "RRI" sequence (gray, SATLDALLAAL; SEQ ID NO:43; tat-gray, tat-GG--SATLDALLAAL; SEQ ID NO:44) or amino-terminal "SATLD" sequence (green; […]; SEQ ID NO:45) on the proapoptotic activity of a dependence peptide was examined. […] The 12 amino acid HIV tat protein fragment ([…]; SEQ ID NO:52; hereinafter termed "tat"), which facilitates cellular entry, also was included on the amino terminus of some of the peptides tested. […] For convenience, the hyphen in the above amino acid sequences is a nomenclature intended to set apart the proapoptotic dependence peptides and variants thereof or control peptides from other amino acid residues contained in the peptide.

Row | Compound | cell viability, PC3 (PC3) | cell viability, NTera 2 [2] | cell viability, COS-7 (COS-7) | cell viability, LNCaP (LNCaP cells) | other results
1 | GRKKRRQRRRPPGGDLSLARLATARLAI [tat-yellow, reference compound] | 97% |  |  |  | 
2 | tat-GG-SATLDALLAALOOI (GRKKRRQRRRPPGGSATLDALLAALQQI) [arginines at positions 12 and 13 replaced with glutamine] |  |  |  |  | decrease of the ability to stimulate SH-SY5Y cell death [1]: 80%
3 | GRKKRRQRRRPPGGSATLDAKLAALRRI [tat-purple] | 92.8% | 69.3% | 97.8% |  | 
4 | GRKKRRQRRRPPGGSATLDALLAAL [tat-gray, tat-GG-SATLDALLAAL] | 90.5% | 76.7% | 97.1% | 59.1% | 
5 | FK1012 |  |  |  |  | apoptosis of cells containing single copy or triple copy FKBP/p75^NTR protein chimera (293T cells): apoptosis was blocked
6 | GRKKRRQRRRPPGGKDRNLRRITRMVLV [tat-turquoise, reference compound] | 87.9% | 67.6% |  | 46.7% | cell viability, NRA 5 cells (PC12 NRA5 cells): 95.7%
7 | [Ca+2].[Cl-].[Cl-] [calcium chloride] |  |  |  |  | mitochondrial swelling (decreased absorbance at 520 nm) (isolated mitochondria): rapid swelling
8 | INLKALAALAKKIL [MP] |  |  |  |  | Effect on apoptosis [3]: underwent apoptosis; also recorded: Apoptotic
9 | GRKKRRQRRRPPGGSATLDALLAALRRI [tat-blue] | 4.2% | 1.3% | 1.5% | 0% | cell viability, NRA 5 cells (PC12 NRA5 cells): 0%

From US6235872A, “Proapoptotic peptides dependence polypeptides and methods of use” (The Burnham Institute, priority 1998, dated 2001)
